# From ChEMBL document CHEMBL1201862, “PubChem BioAssay data set” (2004)
# The source made the active and inactive calls.
# How the values were obtained:
# [1] = NIH-3T3 fibroblast cytotoxicity, dose response, cytotoxicity control, cell-based, fluorescence, Alamar Blue, secondary assay (AID 2327); assay type: functional;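 note: NIH-3T3 mouse fibroblasts cultured with fluconazole at 8 µg/mL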
# BJ [2] = assay: cytotoxicity toward BJ-TERT fibroblasts, dose response, cell-based, RAS-independent, luminescence (AID 1933); assay type: functional; settings: Homo sapiens
# BJ [3] = assay: cells; assay type: functional, cell-based; settings: Homo sapiens
# [4] = C. albicans growth with fluconazole, confirmation, fluorescence, retest (AID 2467); assay type: functional, cell-based
# [5] = molecular target: T1, Serine/threonine-protein phosphatase (Candida dubliniensis (strain CD36 / CBS 7987 / NCPF 3949 / NRRLY-17841) (Yeast), UniProt B9W6M3); assay: calcineurin pathway inhibitors in yeast reporter, dose response, S. cerevisiae, CDRE-lacZ, luminescence, secondary (AID 2388); assay type: functional, cell-based;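 note: yeast reporter cells carrying a calcineurin-responsive lacZ construct stimulated with calcium chloride; luminescent beta-galactosidase reporter signal in whole cells rather than isolated phosphatase activity; potency for inhibition where a drop in reporter signal means calcineurin blockade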
# T1 sequence (B9W6M3 whole entry): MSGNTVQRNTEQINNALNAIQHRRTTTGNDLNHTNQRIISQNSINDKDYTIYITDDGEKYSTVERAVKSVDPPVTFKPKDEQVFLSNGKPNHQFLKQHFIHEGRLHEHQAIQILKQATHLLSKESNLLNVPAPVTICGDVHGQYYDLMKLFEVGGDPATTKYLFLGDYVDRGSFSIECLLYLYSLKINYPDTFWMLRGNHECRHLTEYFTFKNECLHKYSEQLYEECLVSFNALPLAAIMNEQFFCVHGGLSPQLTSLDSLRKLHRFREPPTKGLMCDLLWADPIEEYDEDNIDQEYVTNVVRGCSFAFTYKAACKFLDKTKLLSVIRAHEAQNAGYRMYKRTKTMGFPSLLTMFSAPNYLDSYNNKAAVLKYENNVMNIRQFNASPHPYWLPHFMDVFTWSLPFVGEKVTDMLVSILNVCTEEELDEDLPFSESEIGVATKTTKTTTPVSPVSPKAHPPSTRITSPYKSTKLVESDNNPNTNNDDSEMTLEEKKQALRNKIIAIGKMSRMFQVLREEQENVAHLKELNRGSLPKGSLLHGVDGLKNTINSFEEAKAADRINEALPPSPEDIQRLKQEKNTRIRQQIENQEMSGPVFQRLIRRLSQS
# [6] = cytotoxicity toward NIH3T3 fibroblasts, dose response, counter-screen, cell-based, ATP luminescence, mouse fibroblasts (AID 2010); assay type: functional;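 note: cells exposed to compound for about 90 hours before reading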
# [7] = cytotoxicity toward DRD oncogenic fibroblasts, dose response, cell-based, non-viral oncogenic, luminescence (AID 1934); assay type: functional; settings: Homo sapiens
# Hexokinase HKDC1 = Hexokinase HKDC1 (Homo sapiens, UniProt Q2TB90); assay: HKDC1 hexokinase activators, dose response, biochemical, W721R variant (AID 504730); assay type: functional
# Hexokinase-1 = Hexokinase-1 (Homo sapiens, UniProt P19367); assay: hexokinase 1 activators, dose response, selectivity assay for HKDC1 activator project, biochemical (AID 504762); assay type: functional
# [8] = Counterscreen for AddAB inhibitors: absorbance-based bacterial cell-based high throughput dose response assay for inhibitors of bacterial viability. [Related pubchem assays (depositor defined):AID435030, AID449728, AID449731, AID488942, AID488955, AID488956]; assay type: functional
# HEK293 [9] = assay: inhibitors of LMP1-driven NF-kB reporter, dose response, cell-based, HEK293, luciferase, cherry-pick (AID 588343); assay type: functional; settings: Homo sapiens
# HEK293 [10] = assay: cytotoxicity in HEK293T NF-kB-Luc cells, SAR follow-up, cytotoxicity control for NF-kB activator project, cell-based, resazurin fluorescence (AID 493251); assay type: functional; settings: Homo sapiens
# Jurkat = assay: SAR Analysis of small molecule inhibitors of T-cell specific antigen receptor-induced NF-kB activation in a Jurkat cell line using a luminescence assay - Set 2. [Related pubchem assays (depositor defined):AID435003, AID435012, AID465]; assay type: functional, cell-based; settings: Homo sapiens
# [11] = control 3'UTR Renilla luciferase suppression, dose response, counter-screen for Shn3 inhibitor project, cell-based, Clone20-Shn3RL, cherry-picked (AID 624133); assay type: functional
# [12] = molecular target: T2, Sentrin-specific protease 6 (Homo sapiens, UniProt Q9GZR1); assay type: functional;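 note: Luminescence-based dose-response confirmatory assay of SENP6 inhibition, following up an ultra-high-throughput screen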
# T2 sequence (Q9GZR1 whole entry): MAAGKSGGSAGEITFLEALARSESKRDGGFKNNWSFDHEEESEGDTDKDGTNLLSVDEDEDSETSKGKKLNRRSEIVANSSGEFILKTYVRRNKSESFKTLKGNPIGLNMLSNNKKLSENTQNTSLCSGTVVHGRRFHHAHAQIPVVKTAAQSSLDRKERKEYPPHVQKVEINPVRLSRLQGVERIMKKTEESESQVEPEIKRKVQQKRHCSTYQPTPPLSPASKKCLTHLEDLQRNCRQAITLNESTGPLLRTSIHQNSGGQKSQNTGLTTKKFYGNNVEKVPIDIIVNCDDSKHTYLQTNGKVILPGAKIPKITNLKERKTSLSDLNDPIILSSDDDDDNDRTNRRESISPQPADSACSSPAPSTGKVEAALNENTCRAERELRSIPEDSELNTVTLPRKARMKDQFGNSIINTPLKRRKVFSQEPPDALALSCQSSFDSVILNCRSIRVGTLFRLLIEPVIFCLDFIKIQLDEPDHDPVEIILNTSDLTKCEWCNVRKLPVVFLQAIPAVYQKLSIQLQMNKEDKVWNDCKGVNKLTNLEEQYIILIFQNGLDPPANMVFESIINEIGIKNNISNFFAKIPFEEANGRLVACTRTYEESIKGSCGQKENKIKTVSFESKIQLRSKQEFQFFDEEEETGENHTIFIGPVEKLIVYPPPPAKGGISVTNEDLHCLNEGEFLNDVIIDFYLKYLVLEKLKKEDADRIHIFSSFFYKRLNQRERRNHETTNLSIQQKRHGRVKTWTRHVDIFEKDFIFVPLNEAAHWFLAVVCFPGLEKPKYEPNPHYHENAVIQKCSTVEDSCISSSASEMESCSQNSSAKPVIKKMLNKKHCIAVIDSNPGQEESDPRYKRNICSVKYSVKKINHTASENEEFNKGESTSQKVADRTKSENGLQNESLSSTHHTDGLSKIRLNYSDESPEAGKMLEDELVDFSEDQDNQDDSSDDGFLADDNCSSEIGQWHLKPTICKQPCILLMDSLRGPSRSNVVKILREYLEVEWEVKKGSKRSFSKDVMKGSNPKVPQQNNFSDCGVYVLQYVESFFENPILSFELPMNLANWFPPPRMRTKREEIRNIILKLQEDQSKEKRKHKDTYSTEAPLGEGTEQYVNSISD
# Chain of Hexokinase-1 (P19367 whole entry): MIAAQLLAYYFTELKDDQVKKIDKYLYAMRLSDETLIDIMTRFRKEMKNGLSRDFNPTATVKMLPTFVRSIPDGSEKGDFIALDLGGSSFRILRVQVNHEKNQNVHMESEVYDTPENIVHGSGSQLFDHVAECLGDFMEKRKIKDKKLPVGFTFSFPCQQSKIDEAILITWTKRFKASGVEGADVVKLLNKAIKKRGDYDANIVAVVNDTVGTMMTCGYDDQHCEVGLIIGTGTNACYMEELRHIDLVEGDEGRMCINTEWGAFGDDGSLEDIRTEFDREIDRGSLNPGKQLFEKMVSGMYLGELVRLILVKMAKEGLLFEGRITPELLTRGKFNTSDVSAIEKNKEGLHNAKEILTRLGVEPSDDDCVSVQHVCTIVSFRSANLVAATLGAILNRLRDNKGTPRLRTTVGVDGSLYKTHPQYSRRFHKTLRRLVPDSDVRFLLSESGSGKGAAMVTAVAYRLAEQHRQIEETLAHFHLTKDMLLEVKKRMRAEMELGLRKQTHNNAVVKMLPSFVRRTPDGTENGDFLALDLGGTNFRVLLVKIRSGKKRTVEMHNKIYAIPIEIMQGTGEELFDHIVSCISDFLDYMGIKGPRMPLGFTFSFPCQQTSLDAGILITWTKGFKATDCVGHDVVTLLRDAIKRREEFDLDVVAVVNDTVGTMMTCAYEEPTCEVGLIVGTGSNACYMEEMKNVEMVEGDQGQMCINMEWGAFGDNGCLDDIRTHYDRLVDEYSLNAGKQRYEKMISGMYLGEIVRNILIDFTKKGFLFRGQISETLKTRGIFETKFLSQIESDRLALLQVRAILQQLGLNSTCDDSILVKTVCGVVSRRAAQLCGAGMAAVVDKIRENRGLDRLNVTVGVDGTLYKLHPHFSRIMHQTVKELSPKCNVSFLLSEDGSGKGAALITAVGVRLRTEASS
# Chain of Hexokinase HKDC1 (Q2TB90 whole entry): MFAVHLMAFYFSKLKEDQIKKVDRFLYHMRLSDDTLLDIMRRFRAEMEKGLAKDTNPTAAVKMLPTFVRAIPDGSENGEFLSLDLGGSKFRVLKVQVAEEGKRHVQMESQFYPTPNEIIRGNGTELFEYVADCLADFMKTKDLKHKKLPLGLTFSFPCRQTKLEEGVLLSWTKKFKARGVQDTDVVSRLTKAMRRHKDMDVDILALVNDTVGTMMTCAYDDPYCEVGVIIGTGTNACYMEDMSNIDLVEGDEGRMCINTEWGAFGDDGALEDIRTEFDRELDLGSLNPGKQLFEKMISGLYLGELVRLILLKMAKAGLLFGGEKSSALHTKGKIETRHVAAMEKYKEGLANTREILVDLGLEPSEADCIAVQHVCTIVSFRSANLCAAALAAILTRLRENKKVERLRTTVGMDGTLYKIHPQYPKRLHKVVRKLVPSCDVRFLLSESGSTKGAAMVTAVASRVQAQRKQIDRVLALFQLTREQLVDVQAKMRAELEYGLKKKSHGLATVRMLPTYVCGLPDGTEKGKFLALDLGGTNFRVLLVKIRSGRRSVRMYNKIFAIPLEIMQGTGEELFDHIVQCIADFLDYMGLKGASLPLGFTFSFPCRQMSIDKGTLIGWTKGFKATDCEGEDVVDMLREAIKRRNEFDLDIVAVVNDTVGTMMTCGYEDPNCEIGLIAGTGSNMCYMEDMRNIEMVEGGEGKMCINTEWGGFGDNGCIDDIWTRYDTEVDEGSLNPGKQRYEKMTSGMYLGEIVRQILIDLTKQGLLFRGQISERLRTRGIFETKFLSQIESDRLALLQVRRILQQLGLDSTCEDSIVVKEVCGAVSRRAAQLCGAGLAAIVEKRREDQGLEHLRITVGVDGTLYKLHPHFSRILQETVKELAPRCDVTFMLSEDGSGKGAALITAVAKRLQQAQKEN
Structure (SMILES),EC50 [1],EC50 (BJ [2]),EC50 (BJ [3]),EC50 [4],EC50 [5],EC50 [6],EC50 [7],EC50 (Hexokinase HKDC1),EC50 (Hexokinase-1),IC50 [8],AC50 (HEK293 [9]),IC50 (HEK293 [10]),IC50 (Jurkat),AC50 [11],EC50 (cells),IC50 [12]
CCCCC(=O)NC(c1ccc(N(CC)CC)cc1)c1ccc2cccnc2c1O (stereo unspecified),18.1 µM (inconclusive),0.717 µM (active),2.41 µM (active),0.405 µM (active),> 180 µM (inactive),0.884 µM (active),5.53 µM (active),13.3 µM (active),> 80 µM (inactive),> 119 µM (inactive),5.16 µM (active),35 µM (inactive),3.12 µM (active),0.635 µM (active),0.241 µM (active),
CCOc1cccc(/C=N/NC(=S)Nc2ccccc2[N+](=O)[O-])c1O,,,,,,,,,,,,,,,,10.3 µM (active)
